Measurements from the supplement of paper PMC13380429.
± gives the standard deviation of the averaged measurements.

What was measured:
Settings in all cases: 72 h
[1] = system: Calu-3; assay: drug sensitivity score (DSS) for viability; higher = more toxic; extreme values may be limits of the assay
[2] = system: Vero E6; assay: as above
[3] = system: U2OS; assay: as above
[4] = system: HepG2; assay: as above
[5] = system: Caco-2; assay: as above
[6] = system: Calu-3; assay: relative viability EC50 (midpoint between 100% and the lowest measured viability); higher = less toxic
[7] = system: Vero E6; assay: as above
[8] = system: U2OS; assay: as above
[9] = system: HepG2; assay: as above
[10] = system: Caco-2; assay: as above
[11] = system: Calu-3; assay: cell viability relative to DMSO; higher = less toxic
[12] = system: Vero E6; assay: as above
[13] = system: U2OS; assay: as above
[14] = system: HepG2; assay: as above
[15] = system: Caco-2; assay: as above

Row | SMILES | drug sensitivity score [1] | drug sensitivity score [2] | drug sensitivity score [3] | drug sensitivity score [4] | drug sensitivity score [5] | relative viability EC50 [6] | relative viability EC50 [7] | relative viability EC50 [8] | relative viability EC50 [9] | relative viability EC50 [10] | cell viability ([11]; 1 nM) | cell viability ([11]; 10 nM) | cell viability ([11]; 100 nM) | cell viability ([11]; 1000 nM) | cell viability ([11]; 10000 nM) | cell viability ([12]; 1 nM) | cell viability ([12]; 10 nM) | cell viability ([12]; 100 nM) | cell viability ([12]; 1000 nM) | cell viability ([12]; 10000 nM) | cell viability ([13]; 1 nM) | cell viability ([13]; 10 nM) | cell viability ([13]; 100 nM) | cell viability ([13]; 1000 nM) | cell viability ([13]; 10000 nM) | cell viability ([14]; 1 nM) | cell viability ([14]; 10 nM) | cell viability ([14]; 100 nM) | cell viability ([14]; 1000 nM) | cell viability ([14]; 10000 nM) | cell viability ([15]; 1 nM) | cell viability ([15]; 10 nM) | cell viability ([15]; 100 nM) | cell viability ([15]; 1000 nM) | cell viability ([15]; 10000 nM)
1 | CC(=O)OCC(=O)[C@@]1(OC(C)=O)[C@@H](C)C[C@H]2[C@@H]3C[C@H](F)C4=CC(=O)C=C[C@]4(C)[C@@]3(F)[C@@H](O)C[C@@]21C [diflorasone-diacetate] | 0 | 0 | 0 | 0 | 0.2 | > 10 µM | > 10 µM | > 10 µM | > 10 µM | > 10 µM | 105% | 95.9% | 93.1% | 100% | 101% | 104% | 106% | 105% | 90.7% | 98.1% | 102% | 96.9% | 95.9% | 96.5% | 89.9% | 82.6% | 90.4% | 87.9% | 97.8% | 95.2% | 110% | 106% | 99% | 98.4% | 87.6%
2 | CCN(Cc1ccc(Cl)nc1)/C(=C/[N+](=O)[O-])NC [nitenpyram] | 0 | 0 | 0 | 0 | 0 | > 10 µM | > 10 µM | > 10 µM | > 10 µM | > 10 µM | 101% | 94% | 93.5% | 104% | 94% | 103% | 104% | 98.1% | 96.9% | 105% | 99% | 97% | 98% | 100% | 101% | 104% | 98.7% | 105% | 97.5% | 108% | 95.8% | 100% | 95% | 97.5% | 98.3%
3 | C[C@@H](CN1CC(=O)NC(=O)C1)N1CC(=O)NC(=O)C1 [dexrazoxane] | 0 | 0 | 0 | 0 | 0 | > 10 µM | > 10 µM | > 10 µM | > 10 µM | > 10 µM | 104% | 92.2% | 95.1% | 96.9% | 101% | 105% | 101% | 103% | 93.8% | 99.7% | 96.9% | 109% | 96.7% | 102% | 98.6% | 93.9% | 106% | 98.2% | 92.2% | 100% | 89.3% | 103% | 90.4% | 105% | 90.3%
4 | CN[C@H](CNC(=O)N1CCC[C@@H]([C@@H](OCCNC(=O)OC)c2cccc(Cl)c2)C1)C[C@H]1CCCOC1 | 0 | 0 | 0 | 0 | 0 | > 10 µM | > 10 µM | > 10 µM | > 10 µM | > 10 µM | 103% | 96.2% | 102% | 102% | 98.1% | 101% | 101% | 98.4% | 107% | 98.5% | 97.3% | 98.1% | 106% | 97.7% | 99.1% | 101% | 108% | 92.5% | 98.6% | 95% | 98.2% | 96.1% | 97.1% | 90.1% | 94.5%
5 | CC1(C)CCC(C)(C)c2c1cc(C(=O)Nc1cc(F)c(C(=O)O)c(F)c1)c(O)c2Cl | 1.9 | 0 | 0 | 0 | 0.8 | > 10 µM | > 10 µM | > 10 µM | > 10 µM | > 10 µM | 105% | 92.8% | 89.9% | 86.5% | 85.7% | 95.4% | 105% | 105% | 94.2% | 95.5% | 100% | 96.9% | 90.7% | 97.2% | 92.7% | 102% | 105% | 115% | 112% | 92.7% | 105% | 94.3% | 96% | 86.9% | 85.7%
6 | [NH-]c1c[n+](N2CCOCC2)no1 [linsidomine] | 0 | 0 | 0 | 0 | 0 | > 10 µM | > 10 µM | > 10 µM | > 10 µM | > 10 µM | 100% | 96% | 105% | 94.3% | 116% | 98.9% | 99.3% | 95.6% | 100% | 91.1% | 105% | 98.8% | 100% | 96.3% | 101% | 96.9% | 106% | 97.7% | 96.8% | 104% | 102% | 96.1% | 95.8% | 96.1% | 89.4%
7 | CC[C@H](C)C[C@H](C)CCCCCCCCC(=O)N[C@H]1C[C@@H](O)[C@@H](NCCN)NC(=O)[C@@H]2[C@@H](O)CCN2C(=O)[C@H]([C@H](O)CCN)NC(=O)[C@H]([C@H](O)[C@@H](O)c2ccc(O)cc2)NC(=O)[C@@H]2C[C@@H](O)CN2C(=O)[C@H]([C@@H](C)O)NC1=O [caspofungin] | 0.1 ± 0.14 | 0 | 0 | 0 | 1.35 ± 1.9 | > 10 µM | > 10 µM | > 10 µM | > 10 µM | > 10 µM | 104 ± 13% | 104 ± 14% | 104 ± 1.4% | 96.5 ± 5.9% | 89.5 ± 0.85% | 98.1 ± 1.8% | 99 ± 3.3% | 98.85 ± 0.64% | 95.1 ± 1.6% | 101 ± 7.1% | 95.2 ± 2.2% | 95.6 ± 0.14% | 98 ± 1.3% | 98.2 ± 6.6% | 99 ± 1.6% | 91.8% | 106% | 110% | 116% | 103% | 88.2 ± 4.6% | 96.5 ± 3% | 115 ± 24% | 90.2 ± 18% | 95 ± 1.3%
